Experimental data: the supplement of paper PMC11208160

Assay: recombinant UMI read abundance after kanamycin selection (control-corrected) (log10(CPM+1)); higher = more efficient recombination; extreme values may be limits of the assay; sequences stand for … in AGTGCAGAGAAAATCGGCCAGTTTTCTCTGCCTGCAGTCCGCATGCCGTGGGACCCCTTGGGTTCTAACCTGTTGCCTAGATTTATGCAGCGGACTGCCTTTCTCCCAAAGTGATAAACCGG…AGGTTGGTTTCACT; site = the 11-nt donor
Outline: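 Counts of recombinant UMIs were reported as log10(CPM+1). Before that, they were converted to CPM, averaged over replicates and scaled using control-derived factors. They came from PCR across the donor–target junction after Escherichia coli carrying the pair library and target plasmid was plated on IPTG (0.07 mM) plus kanamycin, or unselected, in two replicates each.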
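Also: IS621 bridge recombinase in Escherichia coli cells against a fixed T5 target plasmid.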

“CAGTCGACATGGACCGGTTTTCCCGGTAATCCGTATTTGGG (site CTGTCGACTCC)” and “AGGAAGACATGGACCGGTTTTCCCGGTAATCCGTATTTGCA (site ATGAAGACTAG)” are within 0.2 log units of each other in “recombinant UMI read abundance (log10)” value: 0.0261 for the first, 0 for the second.

Going from “GTTGTTCCATGGACCGGTTTTCCCGGTAATCCGTATTTGGG (site GTTGTTCCTTC)” to “GCAAACGCATGGACCGGTTTTCCCGGTAATCCGTATTTGGT (site GCAAACGCTAC)”, the “recombinant UMI read abundance (log10)” value rises from 0.00718 to 1.71.

“AACTTGACATGGACCGGTTTTCCCGGTAATCCGTATTTGAC (site AACTTGACTGT)” and “CTCCCTACATGGACCGGTTTTCCCGGTAATCCGTATTTGAG (site GTCCCTACTCT)” are within 0.2 log units of each other in “recombinant UMI read abundance (log10)” value: 0 for the first, 0.0115 for the second.

“TCCCACCCATGGACCGGTTTTCCCGGTAATCCGTATTTGAG (site TCCCACCCTCT)” and “GACTGGCCATGGACCGGTTTTCCCGGTAATCCGTATTTGCA (site GAGTGGCCTTG)” are within 0.2 log units of each other in “recombinant UMI read abundance (log10)” value: 0.00907 for the first, 0 for the second.

Going from “GCGAAAACATGGACCGGTTTTCCCGGTAATCCGTATTTGCT (site GCGCAAACTAG)” to “CAAGACACATGGACCGGTTTTCCCGGTAATCCGTATTTGGG (site CAAGTCACTCC)”, the “recombinant UMI read abundance (log10)” value rises from 0 to 0.274.

“TAATGTGCATGGACCGGTTTTCCCGGTAATCCGTATTTGGG (site TAATGAGCTCC)” and “AGGAAGACATGGACCGGTTTTCCCGGTAATCCGTATTTGCA (site AGGACGACTTC)” are within 0.2 log units of each other in “recombinant UMI read abundance (log10)” value: 0.0156 for the first, 0.00604 for the second.

Going from “CGAGTAGCATGGACCGGTTTTCCCGGTAATCCGTATTTGCC (site CGAGTAGCTGG)” to “AGGAAGACATGGACCGGTTTTCCCGGTAATCCGTATTTGCA (site CGGAACACTTG)”, the “recombinant UMI read abundance (log10)” value falls from 1.66 to 0.912.

“TCATTATCATGGACCGGTTTTCCCGGTAATCCGTATTTGCA (site TCATTATCTTG)” and “TGATCCGCATGGACCGGTTTTCCCGGTAATCCGTATTTGCC (site TGATCCGCTGG)” are within 0.2 log units of each other in “recombinant UMI read abundance (log10)” value: 1.7 for the first, 1.55 for the second.

First: AGGACTACATGGACCGGTTTTCCCGGTAATCCGTATTTGTC (site AGGACTACTGC)
Second: CGGAAGACATGGACCGGTTTTCCCGGTAATCCGTATTTGCA (site TGGAAGACTTG)
The “recombinant UMI read abundance (log10)” value of the first is lower: 0 for the first, 0.259 for the second.

Going from “CCCGAGACATGGACCGGTTTTCCCGGTAATCCGTATTTGGT (site CCCGAGACTAC)” to “GACGATTCATGGACCGGTTTTCCCGGTAATCCGTATTTGAT (site GACGATTCTAT)”, the “recombinant UMI read abundance (log10)” value rises from 0.543 to 2.03.

First: AAGCGCGCATGGACCGGTTTTCCCGGTAATCCGTATTTGGG (site AAGCACGCTCC)
Second: TTAGTTGCATGGACCGGTTTTCCCGGTAATCCGTATTTGTG (site TTAGTTGCTCA)
The “recombinant UMI read abundance (log10)” value of the first is lower: 0.0182 for the first, 1.15 for the second.

First: AAGAAGTCATGGACCGGTTTTCCCGGTAATCCGTATTTGTA (site AAGAAGTCTTA)
Second: AGCAATACATGGACCGGTTTTCCCGGTAATCCGTATTTGCA (site AGCAATACTTG)
The “recombinant UMI read abundance (log10)” value of the first is higher: 3.3 for the first, 1.73 for the second.

Going from “ACAGTATCATGGACCGGTTTTCCCGGTAATCCGTATTTGCT (site ACAGTATCTGG)” to “CAGTCTACATGGACCGGTTTTCCCGGTAATCCGTATTTGGG (site CAGTCAACTCC)”, the “recombinant UMI read abundance (log10)” value falls from 2.29 to 0.0237.

First: AAAAGTCCATGGACCGGTTTTCCCGGTAATCCGTATTTGTA (site GAAAGTCCTTA)
Second: TTTGAGACATGGACCGGTTTTCCCGGTAATCCGTATTTGGT (site ATTGAGACTAC)
The “recombinant UMI read abundance (log10)” value of the first is higher: 0.273 for the first, 0.0113 for the second.

First: GATCAGCCATGGACCGGTTTTCCCGGTAATCCGTATTTGCC (site GATCAGCCTGG)
Second: GGGGCAACATGGACCGGTTTTCCCGGTAATCCGTATTTGCA (site GGGGCAGCTTG)
The “recombinant UMI read abundance (log10)” value of the first is higher: 0.649 for the first, 0 for the second.

Compared with “CACTTGGCATGGACCGGTTTTCCCGGTAATCCGTATTTGGA (site CATTTGGCTTC)”, “TCCCGGACATGGACCGGTTTTCCCGGTAATCCGTATTTGTC (site TCCCGGACTGA)” is higher in “recombinant UMI read abundance (log10)” value: 0.342 for the first, 0.905 for the second.
